US12018021B2 (UCB Biopharma SRL, priority 2018, dated 2024)
pIC50: −log10 of the molar value.

Target: IgE-Tb / sFcεRIα-Y131A-AF488 (Homo sapiens, UniProt P01854, N146Q/N252Q)
Experiment: IgE-Tb / sFcεRIα-Y131A-AF488 FRET assay (protocol for examples 234 to 501)
Type: binding
Details: examples 234 to 501: compound with IgE-Tb 30 minutes before sFcεRIα-Y131A-AF488, incubated 18 hours at room temperature; read-out: Y131A FRET IC50 range
Method: For examples 234 to 501, the assay was conducted according to the following: Each assay reaction was conducted in a volume of 25 μl in a 384-well half-volume plate. 10 point compound serial dilutions (3-fold) were generated in DMSO at a concentration of ×50 that of the final assay concentration (FAC). Compound solutions were then prepared by diluting 10-fold in assay buffer. For the assay, 5l of diluted compound was added to 10 μl of IgE-Tb and incubated for 30 minutes before the addition of 10 μ[…]. FRET reagents FACs were 5 nM IgE-Tb, 25 nM […]. Usually the top FAC of compound in the assay was 10 μM. The final DMSO concentration was 2%. […] The maximum FRET signal (MAX) was measured in wells containing FRET reagents but no compound. The assay was incubated for 18 hours at room temperature, protected from light and evaporation, and with gentle agitation. Measurement of FRET for each well was carried out by exciting at 337 nm and measuring emission at 490/520 nm using a PHERAstar FSX plate reader (BMG Labtech). FRET ratio was calculated as follows: Emission at 520/7Emission at 490×1000. The FRET ratio was used for the data analysis. […] Z' above 0.5 was considered a good assay. Background signal (MIN) was subtracted from all wells. […] Percent inhibition was plotted against compound concentration. IC50 values for each compound were determined using four parameter logistic fit model using the XLFIT5 software package.

Sequence of IgE-Tb / sFcεRIα-Y131A-AF488 (P01854 whole entry N146Q/N252Q): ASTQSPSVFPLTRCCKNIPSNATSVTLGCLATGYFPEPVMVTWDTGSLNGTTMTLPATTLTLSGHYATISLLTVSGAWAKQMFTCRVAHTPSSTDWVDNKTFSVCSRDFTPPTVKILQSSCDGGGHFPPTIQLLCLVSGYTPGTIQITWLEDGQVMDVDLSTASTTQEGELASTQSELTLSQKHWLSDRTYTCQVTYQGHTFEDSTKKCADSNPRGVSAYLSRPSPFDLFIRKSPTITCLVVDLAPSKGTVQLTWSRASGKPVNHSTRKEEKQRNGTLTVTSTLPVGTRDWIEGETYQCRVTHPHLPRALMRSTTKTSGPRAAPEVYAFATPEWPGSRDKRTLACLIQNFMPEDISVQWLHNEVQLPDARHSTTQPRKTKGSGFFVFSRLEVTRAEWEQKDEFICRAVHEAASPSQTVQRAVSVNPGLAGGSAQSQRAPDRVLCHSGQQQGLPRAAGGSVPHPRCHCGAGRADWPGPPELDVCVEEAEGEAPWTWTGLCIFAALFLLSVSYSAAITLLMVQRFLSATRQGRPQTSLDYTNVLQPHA

Row | Structure (SMILES) | pIC50
1 | Cn1nc(C(F)F)cc1Nc1nncn1[C@H]1CCc2sc(NC(=O)[C@@H]3CC34CC4)c(C(=O)NCC3CC3)c2C1 (relative stereo) [Example 311, (5S)—N-(cyclopropylmethyl)-5-[3-[[5-(difluoromethyl)-2-methyl-pyrazol-3-yl]amino]-1,2,4-triazol-4-yl]-2-[[(2R*)-spiro[2.2]pentane-2-carbonyl]amino]-4,5,6,7-tetrahydrobenzothiophene-3-carboxamide [* or S]] | > 6.00
2 | Cn1nc(C(F)F)cc1Nc1nncn1[C@H]1CCc2sc(NC(=O)C3CC3)c(C(=O)NC[C@@H]3CC3(F)F)c2C1 (single isomer, unassigned) [Example 383] | > 6.00
3 | CC1CC1CNC(=O)c1c(NC(=O)C2CC2)sc2c1C[C@@H](n1cnnc1Nc1cc(OC(F)F)nn1C)CC2 (stereo partly drawn) [Example 453, (5S)-2-(cyclopropanecarbonylamino)-5-[3-[[5-(difluoromethoxy)-2-methylpyrazol-3-yl]amino]-1,2,4-triazol-4-yl]-N-[(2-methylcyclopropyl)methyl]-4,5,6,7-tetrahydro-1-benzothiophene-3-carboxamide] | > 6.00
4 | Cn1nc(C(F)F)cc1Nc1nncn1[C@H]1CCc2sc(NC(=O)C3CC(F)(F)C3)c(C(=O)N[C@H]3C[C@H](F)C3)c2C1 [Example 480, (5S)-2-[(3,3-difluorocyclobutanecarbonyl)amino]-5-[3-[[5-(difluoromethyl)-2-methylpyrazol-3-yl]amino]-1,2,4-triazol-4-yl]-N-(trans-3-fluorocyclobutyl)-4,5,6,7-tetrahydro-1-benzothiophene-3-carboxamide] | > 6.00
5 | [2H]C([2H])([2H])n1nc(C(F)F)cc1Nc1nncn1[C@H]1CCc2sc(NC(=O)C3CC3)c(C(=O)NCC3CC3)c2C1 [Example 403, (5S)-2-(cyclopropanecarbonylamino)-N-(cyclopropylmethyl)-5-[3-[[5-(difluoromethyl)-2-(trideuteriomethyl)pyrazol-3-yl]amino]-1,2,4-triazol-4-yl]-4,5,6,7-tetrahydrobenzothiophene-3-carboxamide] | > 6.00
6 | COc1cc(Nc2nncn2[C@H]2CCc3sc(NC(=O)C4CC4)c(C(=O)NCC4CC4)c3C2)n(C)n1 [Example 337, (5S)-2-(cyclopropanecarbonylamino)-N-(cyclopropylmethyl)-5-[3-[(5-methoxy-2-methylpyrazol-3-yl)amino]-1,2,4-triazol-4-yl]-4,5,6,7-tetrahydro-1-benzothiophene-3-carboxamide] | > 6.00
7 | COC(=O)N1CC[C@H](Nc2nncn2[C@H]2CCc3sc(NC(=O)C4CC4)c(C(=O)NCC4CC4)c3C2)C1 [Example 287, Methyl (3S)-3-[[4-[(5S)-2-(cyclopropanecarbonylamino)-3-(cyclopropylmethylcarbamoyl)-4,5,6,7-tetrahydrobenzothiophen-5-yl]-1,2,4-triazol-3-yl]amino]pyrrolidine-1-carboxylate] | > 6.00
8 | Cn1nc(C(F)F)cc1Nc1nncn1[C@H]1CCc2sc(NC(=O)[C@H]3C[C@@H](F)C3)c(C(=O)N[C@H]3C[C@H](F)C3)c2C1 (single isomer, unassigned) [Example 477] | > 6.00
9 | O=C(NCC1CC1)c1c(NC(=O)C2CC2)sc2c1C[C@@H](n1cnnc1N[C@H]1CCN(c3ccc(F)nn3)C1)CC2 [Example 245, (5S)-2-(cyclopropanecarbonylamino)-N-(cyclopropylmethyl)-5-[3-[[(3S)-1-(6-fluoropyridazin-3-yl)pyrrolidin-3-yl]amino]-1,2,4-triazol-4-yl]-4,5,6,7-tetrahydrobenzothiophene-3-carboxamide] | > 6.00
10 | Cn1nc(OC(F)F)cc1Nc1nncn1[C@H]1CCc2sc(NC(=O)C3CC3)c(C(=O)N[C@H]3C[C@H](F)C3)c2C1 [Example 449, (5S)-2-(cyclopropanecarbonylamino)-5-[3-[[5-(difluoromethoxy)-2-methylpyrazol-3-yl]amino]-1,2,4-triazol-4-yl]-N-(trans-3-fluorocyclobutyl)-4,5,6,7-tetrahydro-1-benzothiophene-3-carboxamide] | > 6.00
11 | C[C@H]1C[C@@H]1C(=O)Nc1sc2c(c1C(=O)NC1CC(F)(F)C1)C[C@@H](n1cnnc1Nc1cc(C(F)F)nn1C)CC2 [Example 439, (5S)—N-(3,3-difluorocyclobutyl)-5-[3-[[5-(difluoromethyl)-2-methylpyrazol-3-yl]amino]-1,2,4-triazol-4-yl]-2-[[(1S,2S)-2-methylcyclopropanecarbonyl]amino]-4,5,6,7-tetrahydro-1-benzothiophene-3-carboxamide] | > 6.00
12 | Cc1nocc1Nc1nncn1[C@H]1CCc2sc(NC(=O)C3CC3)c(C(=O)NCC3CC3)c2C1 [Example 308, (5S)-2-(cyclopropanecarbonylamino)-N-(cyclopropylmethyl)-5-[3-[(3-methylisoxazol-4-yl)amino]-1,2,4-triazol-4-yl]-4,5,6,7-tetrahydrobenzothiophene-3-carboxamide] | > 6.00
13 | Cn1nc(C(F)F)cc1Nc1nncn1[C@H]1CCc2sc(NC(=O)[C@H]3CC34CC4)c(C(=O)NC3CC34CC4)c2C1 (mixture of isomers) [Example 411, (5S)-5-[3-[[5-(Difluoromethyl)-2-methylpyrazol-3-yl]amino]-1,2,4-triazol-4-yl]-2-[[(2S)-spiro[2.2]pentane-2-carbonyl]amino]-N-spiro[2.2]pentan-2-yl-4,5,6,7-tetrahydro-1-benzothiophene-3-carboxamide] | > 6.00
14 | C[C@H]1C[C@H]1C(=O)Nc1sc2c(c1C(=O)NCC1CC1)C[C@@H](n1cnnc1Nc1cc(C(F)F)nn1C)CC2 (relative stereo) [Example 371, (5S)—N-(cyclopropylmethyl)-5-[3-[[5-(difluoromethyl)-2-methylpyrazol-3-yl]amino]-1,2,4-triazol-4-yl]-2-[[(1R*,2S*)-2-methylcyclopropanecarbonyl]amino]-4,5,6,7-tetrahydro-1-benzothiophene-3-carboxamide (*1R,2S or 1S,2R)] | > 6.00
15 | Cn1nc(OC(F)F)cc1Nc1nncn1[C@H]1CCc2sc(NC(=O)C3CC3)c(C(=O)NC[C@H]3CC3(F)F)c2C1 (single isomer, unassigned) [Example 459] | > 6.00
16 | Cn1nc(OC(F)F)cc1Nc1nncn1[C@H]1CCc2sc(NC(=O)[C@H]3C[C@@H]3F)c(C(=O)N[C@H]3CC34CC4)c2C1 (relative stereo) [Example 376, (5S)-5-[3-[[5-(difluoromethoxy)-2-methylpyrazol-3-yl]amino]-1,2,4-triazol-4-yl]-2-[[(1R,2S)-2-fluorocyclopropanecarbonyl]amino]-N-[(2R*)-spiro[2.2]pentan-2-yl]-4,5,6,7-tetrahydro-1-benzothiophene-3-carboxamide (* or S)] | > 6.00
17 | Cn1nc(OC(F)F)cc1Nc1nncn1[C@H]1CCc2sc(NC(=O)[C@H]3C[C@@H]3F)c(C(=O)NC[C@H]3CC3(F)F)c2C1 (single isomer, unassigned) [Example 374] | > 6.00
18 | Cn1nc(OC(F)F)cc1Nc1nncn1[C@H]1CCc2sc(NC(=O)C3CC3)c(C(=O)NCC3CC3)c2C1 [Example 351, (5S)-2-(cyclopropanecarbonylamino)-N-(cyclopropylmethyl)-5-[3-[[5-(difluoromethoxy)-2-methylpyrazol-3-yl]amino]-1,2,4-triazol-4-yl]-4,5,6,7-tetrahydro-1-benzothiophene-3-carboxamide] | > 6.00
19 | Cn1nc(C(F)F)cc1Nc1nncn1[C@H]1CCc2sc(NC(=O)C3CC3(F)F)c(C(=O)NCC3CC3)c2C1 (mixture of isomers) [Example 364, (5S)—N-(cyclopropylmethyl)-2-[(2,2-difluorocyclopropanecarbonyl)amino]-5-[3-[[5-(difluoromethyl)-2-methylpyrazol-3-yl]amino]-1,2,4-triazol-4-yl]-4,5,6,7-tetrahydro-1-benzothiophene-3-carboxamide] | > 6.00
20 | Cn1nc(C(F)F)cc1Nc1nncn1[C@H]1CCc2sc(NC(=O)C3CC3(F)F)c(C(=O)NC[C@H]3C[C@H](F)C3)c2C1 (single isomer, unassigned) [Example 278, (5S)-2-[[(1R*)-2,2-difluorocyclopropanecarbonyl]amino]-5-[3-[[5-(difluoromethyl)-2-methyl-pyrazol-3-yl]amino]-1,2,4-triazol-4-yl]-N-[trans-(3-fluorocyclobutyl)methyl]-4,5,6,7-tetrahydrobenzothiophene-3-carboxamide] | > 6.00
21 | Cn1nc(C(F)F)cc1Nc1nncn1[C@H]1CCc2sc(NC(=O)C3COC3)c(C(=O)NCC3CC3)c2C1 [Example 356, N-[(5S)-3-(cyclopropylmethylcarbamoyl)-5-[3-[[5-(difluoromethyl)-2-methylpyrazol-3-yl]amino]-1,2,4-triazol-4-yl]-4,5,6,7-tetrahydro-1-benzothiophen-2-yl]oxetane-3-carboxamide] | > 6.00
22 | Cn1nc(OC(F)F)cc1Nc1nncn1[C@H]1CCc2sc(NC(=O)C3CC3)c(C(=O)NCC3CCC3F)c2C1 (stereo partly drawn) [Example 457, (5S)-2-(cyclopropanecarbonylamino)-5-[3-[[5-(difluoromethoxy)-2-methylpyrazol-3-yl]amino]-1,2,4-triazol-4-yl]-N-[(2-fluorocyclobutyl)methyl]-4,5,6,7-tetrahydro-1-benzothiophene-3-carboxamide] | > 6.00
